In US8202873B2, “2-[4-(pyrazol-4-ylalkyl)piperazin-1-yl]-3-phenyl pyrazines as 5-HT7 receptor antagonists” (Eli Lilly and Company, priority 2007, dated 2012):
Several values for one entry are separate records, joined by “and”; a condition that tells them apart may be missing. Identical values can stand only once.

Experiments:
5-HT1A = biological target: T1, 5-HT1A (Homo sapiens, UniProt P08908); assay: Radioligand receptor binding assay, 5-HT1A
T1 construct: expressed in transfected cells
T1 sequence (P08908 1-422): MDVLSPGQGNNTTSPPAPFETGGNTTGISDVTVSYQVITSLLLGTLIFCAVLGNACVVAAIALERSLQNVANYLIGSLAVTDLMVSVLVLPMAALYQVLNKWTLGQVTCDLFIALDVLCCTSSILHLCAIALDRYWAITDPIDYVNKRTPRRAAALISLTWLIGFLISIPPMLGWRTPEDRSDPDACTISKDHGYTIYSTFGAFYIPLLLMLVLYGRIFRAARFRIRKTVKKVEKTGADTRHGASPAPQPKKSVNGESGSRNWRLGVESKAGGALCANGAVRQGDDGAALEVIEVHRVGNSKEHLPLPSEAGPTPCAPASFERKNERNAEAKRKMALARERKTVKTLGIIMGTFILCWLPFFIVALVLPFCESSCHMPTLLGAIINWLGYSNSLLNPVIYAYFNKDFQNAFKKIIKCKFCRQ
Experimental: (§1) [^3H] […] The reactions are incubated at room temperature for 3 hr. and then counted in a Trilux Microbeta™ scintillation counter to detect receptor-bound radioligand. Binding data is analyzed by computer-assisted 4 parameter fit analysis (ID Business Solutions Ltd, Guildford, Surrey, UK). […]
(§2) Affinity for other serotonin receptor subtypes as well as for alpha 1 & 2 adrenergic receptors can readily be determined by modification of the above described radioligand receptor binding assay using membranes derived from cells stably expressing the desired receptor subtype including the 5-HT1A, 5-HT1B, and 5-HT1D subtypes, as well as the 5-HT2A, 5-HT2B, 5-HT2C, 5-HT4, 5-HT5, and 5-HT6 receptor subtypes. […] The binding affinities of compounds of the present invention may be determined at these additional receptor types and are found to generally have selectivity ratios ≧2.0 against other serotonergic receptors. […]

5-HT2A = biological target: T2, 5-HT2A (Homo sapiens, UniProt P28223); assay: Radioligand receptor binding assay, 5-HT2A
T2 construct: expressed in transfected cells
Experimental: as §1, §2

5-HT6 = biological target: T3, 5-HT6 (Homo sapiens, UniProt P50406); assay: Radioligand receptor binding assay, 5-HT6
T3 construct: expressed in transfected cells
Experimental: as §1, §2

5-HT1B = biological target: T4, 5-HT1B (Homo sapiens, UniProt P28222); assay: Radioligand receptor binding assay, 5-HT1B
T4 construct: expressed in transfected cells
Experimental: as §1, §2

5-HT5 = biological target: T5, 5-HT5 (Homo sapiens, UniProt P47898); assay: Radioligand receptor binding assay, 5-HT5
T5 construct: expressed in transfected cells
Experimental: as §1, §2

5-HT1D = biological target: T6, 5-HT1D (Homo sapiens, UniProt P28221); assay: Radioligand receptor binding assay, 5-HT1D
T6 construct: expressed in transfected cells
Experimental: as §1, §2

5-HT2B = biological target: T7, 5-HT2B (Homo sapiens, UniProt P41595); assay: Radioligand receptor binding assay, 5-HT2B
T7 construct: expressed in transfected cells
Experimental: as §1, §2

5-HT4 = biological target: T8, 5-HT4 (Homo sapiens, UniProt Q13639); assay: Radioligand receptor binding assay, 5-HT4
T8 construct: expressed in transfected cells
Experimental: as §1, §2

alpha 1 adrenergic [1] = biological target: T9, alpha 1 adrenergic; assay: Radioligand receptor binding assay, alpha 1 adrenergic (second line); settings: alpha 1 adrenergic (second line, r13)
T9 construct: Ki; other: alpha 1 adrenergic (second line, r13)
Experimental: as §1, §2

5-HT7 receptor = biological target: T10, 5-HT7 receptor (Homo sapiens, UniProt P34969); assay: 5-HT7 receptor affinity: radioligand binding assay ([3H]5-HT, SPA); settings: [3H]5-HT competition binding
T10 construct: expressed in transfected cells; host or cells: AV-12 cells
Experimental: Membranes for affinity and antagonist activity assays are prepared essentially as follows. AV-12 cells, stably expressing the 5-HT7 receptor, are grown as a monolayer in 5×T-150 flasks in DMEM/F12 (3:1) 5% FBS, 20 mM HEPES, […], […]. After growing to 90% confluence the media is removed and replaced with Hybritech media containing 2% horse serum, […] dextran sulfate, 1 mg/mL nucellin, 1 mg/mL human transferrin (partially iron saturated), […], 20 mM HEPES, […] geneticin, 0.04% pluronic F68. The cells are grown overnight to condition the media. The next morning the conditioned media (˜150 mL total) is removed and set aside in a sterile container. The cells are trypsinized and collected in the conditioned media. Fresh suspension media is added to bring the total volume to 500 mL and a cell density of 5×10^5 cells/mL. […]
To prepare membranes, the above pellets are resuspended in ice-cold Tris buffer (20 mM Tris HCl, pH 7.4 at 23° C., 5 mM EDTA) and homogenized with a Wheaton tissue grinder. […] Protein concentrations are determined by the method of Bradford. […]
as §1

alpha 1 adrenergic [2] = biological target: T11, alpha 1 adrenergic; assay: Radioligand receptor binding assay, alpha 1 adrenergic (first line); settings: alpha 1 adrenergic (first line, r12)
T11 construct: Ki; other: alpha 1 adrenergic (first line, r12)
Experimental: as §1, §2

5-HT2C = biological target: T12, 5-HT2C (Homo sapiens, UniProt P28335); assay: Radioligand receptor binding assay, 5-HT2C
T12 construct: expressed in transfected cells
T12 sequence (P28335 33-458): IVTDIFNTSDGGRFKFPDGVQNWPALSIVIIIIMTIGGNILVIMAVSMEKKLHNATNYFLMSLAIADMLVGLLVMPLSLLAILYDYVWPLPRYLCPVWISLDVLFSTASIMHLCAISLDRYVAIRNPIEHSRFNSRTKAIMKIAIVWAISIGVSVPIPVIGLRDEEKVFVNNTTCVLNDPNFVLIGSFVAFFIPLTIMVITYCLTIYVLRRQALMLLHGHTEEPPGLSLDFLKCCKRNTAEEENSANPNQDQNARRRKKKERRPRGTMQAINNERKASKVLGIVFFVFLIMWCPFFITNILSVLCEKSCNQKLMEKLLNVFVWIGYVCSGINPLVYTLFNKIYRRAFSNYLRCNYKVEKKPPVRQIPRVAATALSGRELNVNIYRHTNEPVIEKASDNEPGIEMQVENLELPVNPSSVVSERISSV
Experimental: as §1, §2

T10 sequence (P34969 whole entry): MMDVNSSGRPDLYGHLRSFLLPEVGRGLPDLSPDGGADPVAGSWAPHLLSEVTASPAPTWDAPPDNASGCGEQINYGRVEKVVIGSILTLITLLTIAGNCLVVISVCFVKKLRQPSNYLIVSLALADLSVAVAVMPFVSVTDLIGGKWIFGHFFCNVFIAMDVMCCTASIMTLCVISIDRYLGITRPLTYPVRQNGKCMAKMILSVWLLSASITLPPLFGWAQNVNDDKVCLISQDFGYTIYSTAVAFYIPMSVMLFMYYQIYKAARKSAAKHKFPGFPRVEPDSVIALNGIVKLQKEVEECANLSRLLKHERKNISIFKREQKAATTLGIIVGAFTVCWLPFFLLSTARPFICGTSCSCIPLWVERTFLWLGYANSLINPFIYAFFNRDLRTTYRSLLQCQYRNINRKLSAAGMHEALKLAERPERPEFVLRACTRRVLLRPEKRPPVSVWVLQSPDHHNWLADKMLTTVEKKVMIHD
T7 sequence (P41595 whole entry, species assumed): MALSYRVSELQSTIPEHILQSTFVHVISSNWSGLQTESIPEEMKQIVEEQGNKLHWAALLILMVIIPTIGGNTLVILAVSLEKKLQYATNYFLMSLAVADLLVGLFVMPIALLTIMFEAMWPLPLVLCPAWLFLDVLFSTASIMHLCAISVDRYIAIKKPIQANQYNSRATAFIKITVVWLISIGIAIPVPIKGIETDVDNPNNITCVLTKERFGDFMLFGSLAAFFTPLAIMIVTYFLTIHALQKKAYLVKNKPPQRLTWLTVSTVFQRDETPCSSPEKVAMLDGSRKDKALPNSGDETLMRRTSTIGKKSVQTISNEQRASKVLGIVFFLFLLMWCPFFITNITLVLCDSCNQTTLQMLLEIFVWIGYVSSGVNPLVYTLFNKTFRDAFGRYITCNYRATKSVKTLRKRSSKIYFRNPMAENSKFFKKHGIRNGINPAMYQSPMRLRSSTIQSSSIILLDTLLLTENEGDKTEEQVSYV
T4 sequence (P28222 whole entry, species assumed): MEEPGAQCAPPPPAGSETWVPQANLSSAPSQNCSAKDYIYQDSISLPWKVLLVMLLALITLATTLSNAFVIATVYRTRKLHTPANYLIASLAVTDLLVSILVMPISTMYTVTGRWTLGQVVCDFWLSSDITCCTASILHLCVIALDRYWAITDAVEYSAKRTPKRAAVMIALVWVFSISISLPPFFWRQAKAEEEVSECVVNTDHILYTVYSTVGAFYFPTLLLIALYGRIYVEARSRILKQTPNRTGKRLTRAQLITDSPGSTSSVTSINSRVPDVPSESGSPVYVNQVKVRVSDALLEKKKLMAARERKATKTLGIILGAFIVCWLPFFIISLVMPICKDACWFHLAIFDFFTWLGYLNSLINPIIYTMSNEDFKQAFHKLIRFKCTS
T6 sequence (P28221 whole entry, species assumed): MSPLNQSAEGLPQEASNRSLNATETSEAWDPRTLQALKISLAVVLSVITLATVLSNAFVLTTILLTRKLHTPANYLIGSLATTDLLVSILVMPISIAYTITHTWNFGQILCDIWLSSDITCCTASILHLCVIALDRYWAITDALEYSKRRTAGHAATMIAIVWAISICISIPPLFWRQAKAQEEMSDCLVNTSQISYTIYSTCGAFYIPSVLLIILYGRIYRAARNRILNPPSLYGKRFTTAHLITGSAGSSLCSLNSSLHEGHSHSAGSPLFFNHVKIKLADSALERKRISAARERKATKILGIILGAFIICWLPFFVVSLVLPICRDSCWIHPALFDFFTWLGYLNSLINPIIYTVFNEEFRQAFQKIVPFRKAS
T5 sequence (P47898 whole entry, species assumed): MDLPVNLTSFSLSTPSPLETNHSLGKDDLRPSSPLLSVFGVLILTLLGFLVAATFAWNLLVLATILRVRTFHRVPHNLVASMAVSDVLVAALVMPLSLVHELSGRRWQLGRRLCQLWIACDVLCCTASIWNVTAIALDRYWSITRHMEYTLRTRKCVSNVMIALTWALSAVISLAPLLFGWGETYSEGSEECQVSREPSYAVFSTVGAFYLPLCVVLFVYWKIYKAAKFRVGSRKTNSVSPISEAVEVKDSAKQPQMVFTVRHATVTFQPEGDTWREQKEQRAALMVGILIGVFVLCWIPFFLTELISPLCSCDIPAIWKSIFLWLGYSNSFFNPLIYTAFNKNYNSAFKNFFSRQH
T3 sequence (P50406 whole entry, species assumed): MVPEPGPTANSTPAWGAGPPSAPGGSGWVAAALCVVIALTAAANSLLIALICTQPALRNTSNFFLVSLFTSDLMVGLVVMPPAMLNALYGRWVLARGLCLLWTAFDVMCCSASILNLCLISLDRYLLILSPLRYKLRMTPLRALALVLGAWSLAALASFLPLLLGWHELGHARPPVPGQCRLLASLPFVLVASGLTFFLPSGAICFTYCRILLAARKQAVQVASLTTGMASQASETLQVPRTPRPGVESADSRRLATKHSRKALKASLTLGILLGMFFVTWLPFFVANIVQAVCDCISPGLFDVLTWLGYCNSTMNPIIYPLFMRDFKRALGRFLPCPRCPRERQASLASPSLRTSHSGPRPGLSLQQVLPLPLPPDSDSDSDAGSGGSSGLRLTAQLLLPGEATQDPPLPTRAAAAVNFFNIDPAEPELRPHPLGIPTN
T2 sequence (P28223 whole entry, species assumed): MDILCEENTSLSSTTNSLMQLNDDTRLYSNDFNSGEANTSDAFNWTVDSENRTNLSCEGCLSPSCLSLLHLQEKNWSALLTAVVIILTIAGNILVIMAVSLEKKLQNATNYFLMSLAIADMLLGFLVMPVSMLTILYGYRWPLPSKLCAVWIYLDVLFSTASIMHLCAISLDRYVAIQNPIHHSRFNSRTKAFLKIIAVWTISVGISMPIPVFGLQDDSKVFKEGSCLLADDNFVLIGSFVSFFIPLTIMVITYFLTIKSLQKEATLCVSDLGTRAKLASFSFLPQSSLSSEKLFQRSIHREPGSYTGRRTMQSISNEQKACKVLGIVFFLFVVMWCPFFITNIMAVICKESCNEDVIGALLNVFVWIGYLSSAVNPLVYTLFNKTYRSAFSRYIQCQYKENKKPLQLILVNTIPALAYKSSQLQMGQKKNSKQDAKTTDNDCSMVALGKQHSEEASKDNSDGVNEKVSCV
T8 sequence (Q13639 whole entry, species assumed): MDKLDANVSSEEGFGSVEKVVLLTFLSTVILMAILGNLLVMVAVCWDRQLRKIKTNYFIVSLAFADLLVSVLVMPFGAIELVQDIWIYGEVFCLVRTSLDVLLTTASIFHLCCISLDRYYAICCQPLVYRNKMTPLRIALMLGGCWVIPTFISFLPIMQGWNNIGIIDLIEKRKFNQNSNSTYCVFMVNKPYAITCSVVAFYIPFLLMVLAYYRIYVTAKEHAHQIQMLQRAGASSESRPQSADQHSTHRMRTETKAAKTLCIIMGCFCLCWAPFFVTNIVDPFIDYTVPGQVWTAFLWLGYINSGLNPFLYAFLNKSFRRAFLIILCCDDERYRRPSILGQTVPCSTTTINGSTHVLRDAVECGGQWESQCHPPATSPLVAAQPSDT

`Cn1cc(CN2CCN(c3nccnc3-c3cccc(F)c3F)CC2)cn1` [Example 142, 4-(1-Methyl-1H-pyrazol-4-ylmethyl)-3′-(2,3-difluorophenyl)-3,4,5,6-tetrahydro-2H-[1,2′]bipyrazine] gave a Ki (5-HT1A) of 1.25 µM, a Ki (5-HT2A) greater than 7.47 µM and a Ki (5-HT6) greater than 1.79 µM. It also gave a Ki (5-HT1B) greater than 3.58 µM, a Ki (5-HT5) greater than 7.02 µM and a Ki (5-HT1D) greater than 2.4 µM. It also gave a Ki (5-HT2B) greater than 3.16 µM, a Ki (5-HT4) greater than 6.31 µM and a Ki (alpha 1 adrenergic [1]) of 0.933 µM. The Ki (5-HT7 receptor) was ~0.044 µM and 0.044 µM, the Ki (alpha 1 adrenergic [2]) was greater than 1.44 µM and the Ki (5-HT2C) was greater than 8.2 µM.
